According to patent US6489475B2, “Method of producing heterocyclic derivatives” (Sankyo Company, Limited, priority 1994, dated 2002):
Marks after values point to notes of the source that are not given here.

What was measured:
[1] = test system: LDL; experiment: LDL peroxidation inhibitory effect (copper sulfate, malondialdehyde by thiobarbituric acid method); assay type: biochemical, rabbit; conditions: concentration 10^-5M; 37°C, 24 hours; malondialdehyde production inhibitory ratio
Experimental: LDL Peroxidation Inhibitory Effect
Male Japanese white rabbits weighing 2-2.5 kg were bred on 100 g per day of a high cholesterol feed [added with cholesterol (1%), Clea Japan, Inc.] for 4 weeks. The blood was taken from carotid and plasma was obtained. Then, LDL was fractionated from the plasma by ultracentrifugation, dialyzed for one day and preserved at 4° C. LDL (400 μg) and aqueous copper sulfate solution (final concentration 5 μM) were added to bufferized Ham F-10 medium (2 ml, GIBCO, USA). DMSO or a solution (20 μl) of test compound dissolved in DMSO was added and the mixture was incubated at 37° C. for 24 hours. After the completion of the incubation, LDL peroxide in medium was allowed to develop color by thiobarbituric acid method and assayed as malondialdehyde. The activity of the test compound was expressed as malondialdehyde production inhibitory ratio (%), namely, the proportion of inhibition of production of malondialdehyde as compared to control.

[2] = test system: ACAT; experiment: ACAT inhibitory activity (small intestine mucosa microsomes, [1-14C]-oleoyl CoA, cholesteryl oleate production); assay type: biochemical, rabbit; conditions: concentration 10^-5M; inhibition of cholesteryl oleate production vs control
Experimental: A high cholesterol feed [a feed added with cholesterol (1%), Clea Japan, Inc.] was fed to male Japanese white rabbits weighing 2-2.5 kg at 100 g per day and the rabbits were bred for 4 weeks. The rabbits were killed by bleeding under anesthesia and small intestine was removed. The mucous membrane of small intestine was peeled, collected and homogenated. The homogenate was centrifuged at 4° C. and 10,000 rpm for 15 min. The obtained supernatant was further centrifuged at 4° C. and 41,000 rpm for 30 minutes to give microsomal fractions. Using this microsomal suspension as an enzyme sample, dimethyl sulfoxide (DMSO, 5 μl) or a test compound dissolved in DMSO (test compound solution, 5 μl), and a reaction substrate [1-^14C]-oleoyl CoA were added to a reaction buffer. After incubation at 37° C. for 5 minutes, a chloroform-methanol mixture was added to stop the reaction. Water was added thereto and mixed, and chloroform layer was separated. The solvent was evaporated to dryness, and the residue was dissolved in hexane. The mixture was subjected to thin layer chromatography using a silica gel plate. The spots of cholesteryl oleate on the silica gel plate were scraped, and quantitatively assayed on a liquid scintillation counter. The ACAT inhibitory activity of the test compound was expressed as a proportion (%) of inhibition of cholesteryl oleate, namely, the proportion of inhibition of cholesteryl oleate production as compared to control.

[3] = test system: Male Wister rats; experiment: Serum total cholesterol reducing effect in rats on high cholesterol feed; assay type: in vivo; conditions: oral, once a day for 3 days, rat
Experimental: Serum Total Cholesterol Reducing Effect
Male Wister rats weighing 180-200 g were bred under free access to a high cholesterol feed [added with cholesterol (1%), cholic acid (0.5%) and coconut oil (10%), Clea Japan, Inc.] for 3 days, during which period a test compound (10-100 mg/kg) suspended in 5% gum arabic solution was forcibly administered once a day orally for 3 days. Only 5% gum arabic solution was administered to control animals. After final administration, the test animals were fasted for 5 hours and the blood was taken. The serum total cholesterol level was determined using a commercially available assay kit (cholesterol-E-Test Wako, Wako Pure Chemical Industries, Ltd.). The activity of the test compound was expressed as a proportion (%) of reduction of serum total cholesterol level, namely, the proportion of reduction of serum total cholesterol as compared to control.

[4] = test system: plasma; experiment: Plasma lipoperoxidation inhibitory effect (copper sulfate, malondialdehyde by thiobarbituric acid method); assay type: biochemical, rabbit; conditions: concentration 10^-5M; 37°C, 3 hours; malondialdehyde production inhibitory ratio
Experimental: Plasma Lipoperoxidation Inhibitory Effect
The blood was taken from male Japanese white rabbits weighing 2-2.5 kg under anesthesia and heparinized plasma was separated by a conventional method. To the plasma (2.0 ml) was added DMSO or a solution (20 μl, final concentration 10^−5 M) of test compound dissolved in DMSO, and aqueous copper sulfate solution (final concentration 5 mM) was added immediately thereafter. The mixture was incubated at 37° C. for 3 hours. After the completion of the incubation, 20% trichloroacetic acid was added to stop the reaction. Then, the mixture was centrifuged at 4° C., 4,500 rpm for 15 minutes. The lipoperoxide in the supernatant thus obtained was assayed as malondialdehyde upon color development by thiobarbituric acid method. The activity of the test compound was expressed as malondialdehyde production inhibitory ratio (%), namely, the proportion of inhibition of production of malondialdehyde as compared to control.

Row | Structure (SMILES) | Result of Exp. Ex. 3: LDL peroxidation inhibition [1] [%] | Result of Exp. Ex. 1: ACAT inhibition [2] | Result of Exp. Ex. 2: reduction of serum total cholesterol ([3]; dose 30 mg/kg/day) | Result of Exp. Ex. 4: plasma lipoperoxidation inhibition [4] [%] | Result of Exp. Ex. 2: reduction of serum total cholesterol ([3]; dose 10 mg/kg/day) | Result of Exp. Ex. 2: reduction of serum total cholesterol ([3]; dose 100 mg/kg/day)
1 | Cc1cc(C)c(NC(=O)C(C)(C)C)c2c1CCN2CC(C)C [Example 32] | 85.3 | 93.9 ** % | 57.4 ** % | 89.1 |  | 
2 | CCCCCCN1CCc2c(C)cc(C)c(NC(=O)CCCC)c21 [Example 21] | 92.1 | 94.4 ** % |  | 91.4 | 28.3 * % | 
3 | CCCCCCN1CCc2c1cc(C)c(NC(=O)C(C)(C)C)c2C [Example 2, N-(1-hexyl-4,6-dimethylindolin-5-yl)-2,2-dimethylpropanamide] | 99.5 | 59.9 ** % |  | 95.8 |  | 
4 | Cc1cc(C)c(NC(=O)C(C)(C)C)c2c1CCN2CCCCCC(=O)O [Example 26] | 43.3 | 26.5 ** % | 37.4 ** % | 90.1 |  | 
5 | CCCCCCN1CCc2c(C)cc(C)c(NC(=O)C(C)(C)COC(C)=O)c21 [Example 29] | 91.9 | 86.6 ** % | 6.9 ** % | 91.1 |  | 
6 | CCCCCCN1CCc2c(C)cc(C)c(NC(=O)C(C)(C)CCCCCC)c21 [Example 15] | 12.3 | 93.1 ** % |  | 90.1 | 35.0 * % | 
7 | CCCCCCN1CCc2c1cc(C)c(NC(=O)NCCCC)c2C [Example 1, 1-butyl-3-(1-hexyl-4,6-dimethylindolin-5-yl)urea] | 99.2 | 76.6 ** % |  | 94.3 |  | 12.9 *** %
8 | CC(C)(Sc1cc(C(C)(C)C)c(O)c(C(C)(C)C)c1)Sc1cc(C(C)(C)C)c(O)c(C(C)(C)C)c1 [Probucol, 4,4′-isopropylidenedithiobis(2,6-di-t-butylphenol), reference compound] | 89.4 | 3.4 ** % |  | 87.5 | 7.3 * % | 
9 | CC(=O)OCCN1CCc2c(C)cc(C)c(NC(=O)C(C)(C)C)c21 [Example 22] | 40.6 | 78.5 ** % |  | 92.8 |  | 38.6 *** %
10 | CCCCCCN1CCc2c(C)cc(C)c(NC(=O)C(C)(C)COCC)c21 [Example 34] | 82.9 | 91.0 ** % | 50.2 ** % | 89.8 |  | 
11 | CCCCCCN1CCc2c(OC)cc(OC)c(NC(=O)C(C)(C)C)c21 [Example 7] | 86.6 | 96.2 ** % | 19.2 ** % | 86.4 |  | 
12 | COCCN1CCc2c(C)cc(C)c(NC(=O)C(C)(C)C)c21 [Example 23] | 54.8 | 88.8 ** % | 23.6 ** % | 90.5 |  | 
